In ChEMBL document CHEMBL1201862, “PubChem BioAssay data set” (2004):
Activity calls are given as the source filed them.

Columns and labels:
[1] = molecular target: T1, Aminopeptidase N (Plasmodium falciparum FcB1/Columbia, UniProt O96935); assay: P. falciparum M1AAP inhibitors, biochemical, fluorogenic H-Leu-NHMec substrate, 1536-well (AID 1445); set-up: species or system Plasmodium falciparum 3D7, 3D7
T1 sequence (O96935 whole entry): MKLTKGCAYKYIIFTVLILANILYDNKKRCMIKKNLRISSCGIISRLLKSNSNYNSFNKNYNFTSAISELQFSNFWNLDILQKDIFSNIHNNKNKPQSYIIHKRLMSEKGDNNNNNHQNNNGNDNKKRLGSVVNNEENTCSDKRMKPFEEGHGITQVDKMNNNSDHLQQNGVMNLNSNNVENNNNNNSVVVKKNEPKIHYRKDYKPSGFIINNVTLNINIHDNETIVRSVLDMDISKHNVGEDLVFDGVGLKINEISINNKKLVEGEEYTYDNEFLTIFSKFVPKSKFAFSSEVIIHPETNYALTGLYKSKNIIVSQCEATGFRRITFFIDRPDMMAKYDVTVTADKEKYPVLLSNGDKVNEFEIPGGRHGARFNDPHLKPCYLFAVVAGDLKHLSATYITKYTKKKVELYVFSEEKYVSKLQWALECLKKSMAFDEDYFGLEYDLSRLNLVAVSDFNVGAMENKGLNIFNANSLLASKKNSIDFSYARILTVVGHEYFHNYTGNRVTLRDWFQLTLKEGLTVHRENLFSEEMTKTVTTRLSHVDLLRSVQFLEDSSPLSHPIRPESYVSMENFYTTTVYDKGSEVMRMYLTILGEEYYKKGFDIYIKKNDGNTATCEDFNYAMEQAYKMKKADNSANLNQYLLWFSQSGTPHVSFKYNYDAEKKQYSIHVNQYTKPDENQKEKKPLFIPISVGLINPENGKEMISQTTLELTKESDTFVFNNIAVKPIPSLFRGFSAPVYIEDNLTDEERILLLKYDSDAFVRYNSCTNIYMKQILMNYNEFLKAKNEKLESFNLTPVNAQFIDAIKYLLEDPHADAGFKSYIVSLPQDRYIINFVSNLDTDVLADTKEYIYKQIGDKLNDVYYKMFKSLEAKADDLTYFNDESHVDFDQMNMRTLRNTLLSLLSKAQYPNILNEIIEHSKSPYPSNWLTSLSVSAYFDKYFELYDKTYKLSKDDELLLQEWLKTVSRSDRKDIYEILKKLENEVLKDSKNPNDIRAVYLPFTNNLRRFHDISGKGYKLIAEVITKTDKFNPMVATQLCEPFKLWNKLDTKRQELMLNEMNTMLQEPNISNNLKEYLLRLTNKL

[2] = Luminescence Cell-Based Dose Confirmation HTS to Identify Activators of 5'UTR Stem-Loop Driven Alpha-Synuclein mRNA Translation in H4 Neuroglioblastoma Cells. [Related pubchem assays: 1829 (Project Summary), 1814 (Primary HTS)]; type: functional
[3] = Luminescence Cell-Based Dose Response HTS to Identify Activators of Luciferase Translation or Activity in H4 […] Cells. [Related pubchem assays: 1829 (Project Summary), 1814 (Primary HTS)]; type: functional
[4] = cells; type: functional, cell-based
[5] = tested on: H4; assay: Luminescence Cell-Based Dose Response HTS to Identify Activators of 5'UTR Stem-Loop Driven Prion Protein mRNA Translation in H4 Neuroglioblastoma Cells. [Related pubchem assays: 1829 (Project Summary), 1814 (Primary HTS)]; type: functional; details: Homo sapiens
[6] = cells; type: functional, cell-based; remark: listed apart in the source
[7] = THP-1 cell cytotoxicity, dose response, cytotoxicity control for non-replicating M. tuberculosis project (AID 489025); type: functional
[8] = cells; type: functional
[9] = molecular target: Disintegrin and metalloproteinase domain-containing protein 17 (Homo sapiens, UniProt P78536); assay: exosite inhibitors of ADAM17, dose response, biochemical (AID 743260)
[10] = ADAM10 protease inhibitors, dose response, selectivity assay for ADAM17 exosite inhibitor project, biochemical, FRET peptide substrate, recombinant human ADAM10 (AID 743259);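 note: ADAM10 enzyme cleaving a FRET peptide substrate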
[11] = molecular target: T2, Caspase-6 (Homo sapiens, UniProt P55212); assay: human caspase-6 inhibitors, dose response, biochemical, VEID-R110 fluorescence, cherry-pick (AID 720632)
T2 sequence (P55212 whole entry): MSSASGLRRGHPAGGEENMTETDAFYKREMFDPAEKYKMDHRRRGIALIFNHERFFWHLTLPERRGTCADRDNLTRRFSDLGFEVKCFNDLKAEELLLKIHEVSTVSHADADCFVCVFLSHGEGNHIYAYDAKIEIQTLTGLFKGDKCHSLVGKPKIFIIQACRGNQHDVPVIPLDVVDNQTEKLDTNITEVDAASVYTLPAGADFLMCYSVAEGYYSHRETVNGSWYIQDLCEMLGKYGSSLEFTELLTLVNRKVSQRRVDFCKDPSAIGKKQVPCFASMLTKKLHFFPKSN

[12] = molecular target: Nonstructural protein 1 (Influenza A virus, UniProt Q194T2); type: functional, Influenza A virus (A/California/07/2009(H1N1))
[13] = molecular target: T3, Heat shock factor protein 1 (Mus musculus, UniProt P38532); assay: HSF1 potentiators in luciferase reporter cells, confirmation, cell-based, NIH3T3, luminescence, dose retest (AID 435004); type: functional;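 note: stress induced by proteasome inhibitor MG132 added 30 min after compound; luciferase reporter driven by HSF1 response element in NIH3T3 cells; actives raise luminescence as potentiators of the MG132 stress response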
T3 sequence (P38532 whole entry): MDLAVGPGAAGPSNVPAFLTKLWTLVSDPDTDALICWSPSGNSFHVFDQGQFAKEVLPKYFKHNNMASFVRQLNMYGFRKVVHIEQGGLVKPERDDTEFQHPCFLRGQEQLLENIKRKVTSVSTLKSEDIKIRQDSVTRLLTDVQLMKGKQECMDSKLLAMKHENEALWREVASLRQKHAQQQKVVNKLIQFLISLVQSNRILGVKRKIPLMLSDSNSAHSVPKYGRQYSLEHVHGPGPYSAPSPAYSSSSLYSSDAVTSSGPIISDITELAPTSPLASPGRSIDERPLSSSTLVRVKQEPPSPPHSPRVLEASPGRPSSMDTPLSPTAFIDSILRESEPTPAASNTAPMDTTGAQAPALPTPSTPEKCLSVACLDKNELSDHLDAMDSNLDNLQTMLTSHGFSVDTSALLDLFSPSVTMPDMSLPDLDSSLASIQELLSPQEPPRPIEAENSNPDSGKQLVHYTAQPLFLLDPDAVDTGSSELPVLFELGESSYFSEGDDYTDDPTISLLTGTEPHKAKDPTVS

[14] = molecular target: T4, Replicative DNA helicase DnaB (Mycobacterium tuberculosis, UniProt P9WMR3); assay: DnaB intein splicing inhibitors, dose response, biochemical, cell-free fluorescence (AID 449749); type: functional
T4 sequence (P9WMR3 whole entry): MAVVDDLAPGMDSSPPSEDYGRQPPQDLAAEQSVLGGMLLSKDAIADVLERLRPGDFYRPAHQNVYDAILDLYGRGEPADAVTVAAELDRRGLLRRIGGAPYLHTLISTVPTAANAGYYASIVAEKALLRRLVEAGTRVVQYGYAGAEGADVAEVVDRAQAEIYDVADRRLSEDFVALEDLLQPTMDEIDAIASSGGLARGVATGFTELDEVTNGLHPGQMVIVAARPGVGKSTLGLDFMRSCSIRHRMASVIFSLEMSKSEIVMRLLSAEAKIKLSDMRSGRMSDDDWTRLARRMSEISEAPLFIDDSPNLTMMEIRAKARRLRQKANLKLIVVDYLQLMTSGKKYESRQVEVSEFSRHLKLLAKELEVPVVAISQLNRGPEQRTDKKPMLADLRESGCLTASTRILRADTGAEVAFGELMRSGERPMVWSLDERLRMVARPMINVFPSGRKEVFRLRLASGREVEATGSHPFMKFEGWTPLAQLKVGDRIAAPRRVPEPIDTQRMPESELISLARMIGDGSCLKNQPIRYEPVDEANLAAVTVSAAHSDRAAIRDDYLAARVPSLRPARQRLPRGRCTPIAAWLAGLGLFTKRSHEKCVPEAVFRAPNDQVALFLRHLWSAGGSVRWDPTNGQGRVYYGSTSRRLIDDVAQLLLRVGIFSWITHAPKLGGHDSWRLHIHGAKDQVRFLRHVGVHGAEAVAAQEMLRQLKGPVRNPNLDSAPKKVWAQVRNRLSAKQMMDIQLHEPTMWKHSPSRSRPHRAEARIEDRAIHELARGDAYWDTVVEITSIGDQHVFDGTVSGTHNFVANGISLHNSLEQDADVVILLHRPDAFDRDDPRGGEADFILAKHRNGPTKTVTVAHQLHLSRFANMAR

[15] = molecular target: T5, Protein RecA (Mycobacterium tuberculosis, UniProt P9WHJ3); assay: Fluorescence Cell-Free Homogeneous Dose Retest to Identify Inhibitors of RecA-Intein Splicing Activity. [Related pubchem assays (depositor defined):AID2097, AID2223, AID489010, AID492950]; type: functional
T5 sequence (P9WHJ3 whole entry): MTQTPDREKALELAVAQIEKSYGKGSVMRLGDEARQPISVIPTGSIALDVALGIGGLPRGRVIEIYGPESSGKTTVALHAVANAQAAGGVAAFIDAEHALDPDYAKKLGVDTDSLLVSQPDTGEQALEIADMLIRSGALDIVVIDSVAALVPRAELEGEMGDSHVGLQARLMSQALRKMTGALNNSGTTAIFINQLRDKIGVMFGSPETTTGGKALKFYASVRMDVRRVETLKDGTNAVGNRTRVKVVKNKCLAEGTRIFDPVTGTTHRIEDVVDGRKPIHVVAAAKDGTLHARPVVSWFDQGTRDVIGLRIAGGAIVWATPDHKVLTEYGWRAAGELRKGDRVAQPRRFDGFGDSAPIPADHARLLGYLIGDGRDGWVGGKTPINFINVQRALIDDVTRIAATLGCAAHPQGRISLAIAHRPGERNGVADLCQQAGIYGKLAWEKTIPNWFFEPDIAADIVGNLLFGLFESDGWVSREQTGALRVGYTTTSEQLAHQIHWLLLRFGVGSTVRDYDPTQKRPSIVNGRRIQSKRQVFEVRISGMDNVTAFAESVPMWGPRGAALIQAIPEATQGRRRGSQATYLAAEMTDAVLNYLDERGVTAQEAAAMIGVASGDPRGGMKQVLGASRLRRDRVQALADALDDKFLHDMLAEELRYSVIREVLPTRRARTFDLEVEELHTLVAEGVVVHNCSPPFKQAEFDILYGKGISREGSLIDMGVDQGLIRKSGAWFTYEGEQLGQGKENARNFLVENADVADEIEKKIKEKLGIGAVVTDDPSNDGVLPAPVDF

[16] = THP-1 cell cytotoxicity, dose response, cytotoxicity control for Vif-APOBEC3G degradation inhibitor project, THP-1 cells (AID 1117359); type: functional; details: Human immunodeficiency virus 1, THP-1
[17] = inhibitors of HIV Env-driven cell fusion, dose response, cherry-pick (AID 652057); type: functional, cell-based
[18] = ZM109 Env clade C HIV-1 fusion inhibitors, dose response, HeLa effector, CEM target cells, luciferase, cherry-pick (AID 652058); type: functional, cell-based
[19] = inhibitors of clade B AD8 Env fusion, dose response, cell-based, cherry-pick (AID 652062); type: functional;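 note: luciferase signal from cell-cell fusion driven by HIV-1 clade B AD8 Env; potency is for inhibitors of fusion seen as a drop in luminescence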
[20] = Luminescence Cell-Based Dose Retest to Confirm Inhibitors of Cancer Stem Cells. [Related pubchem assays (depositor defined):AID2717, AID2721]; type: functional; details: Homo sapiens

Disintegrin and metalloproteinase domain-containing protein 17, sequence (P78536 whole entry, the tested form may be a part): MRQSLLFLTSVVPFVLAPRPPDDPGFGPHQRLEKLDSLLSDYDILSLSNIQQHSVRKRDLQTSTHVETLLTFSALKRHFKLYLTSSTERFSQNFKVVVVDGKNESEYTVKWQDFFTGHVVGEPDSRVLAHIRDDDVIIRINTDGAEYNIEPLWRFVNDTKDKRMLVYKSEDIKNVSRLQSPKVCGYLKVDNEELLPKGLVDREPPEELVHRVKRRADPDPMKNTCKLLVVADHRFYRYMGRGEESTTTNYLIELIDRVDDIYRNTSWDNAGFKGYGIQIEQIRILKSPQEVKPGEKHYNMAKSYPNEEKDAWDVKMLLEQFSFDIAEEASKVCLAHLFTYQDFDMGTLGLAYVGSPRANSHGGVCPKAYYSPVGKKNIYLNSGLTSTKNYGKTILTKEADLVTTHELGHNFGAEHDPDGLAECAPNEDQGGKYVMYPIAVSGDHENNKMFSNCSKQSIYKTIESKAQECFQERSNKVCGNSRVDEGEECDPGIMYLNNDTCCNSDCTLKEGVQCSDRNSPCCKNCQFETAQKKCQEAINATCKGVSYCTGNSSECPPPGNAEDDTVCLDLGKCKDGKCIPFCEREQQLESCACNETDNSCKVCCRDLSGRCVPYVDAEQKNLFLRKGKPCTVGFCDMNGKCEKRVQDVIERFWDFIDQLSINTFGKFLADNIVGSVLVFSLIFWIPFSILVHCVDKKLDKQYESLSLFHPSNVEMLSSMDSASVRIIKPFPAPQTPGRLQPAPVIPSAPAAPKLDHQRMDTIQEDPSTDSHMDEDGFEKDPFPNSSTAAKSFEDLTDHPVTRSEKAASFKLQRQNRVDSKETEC
Nonstructural protein 1, sequence (Q194T2 whole entry): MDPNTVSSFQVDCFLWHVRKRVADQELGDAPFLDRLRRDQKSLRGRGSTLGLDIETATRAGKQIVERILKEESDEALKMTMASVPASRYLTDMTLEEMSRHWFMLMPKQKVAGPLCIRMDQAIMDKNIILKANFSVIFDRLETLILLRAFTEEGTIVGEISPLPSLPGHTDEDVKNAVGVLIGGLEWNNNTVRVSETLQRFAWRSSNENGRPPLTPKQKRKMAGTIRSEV

COc1ccc(C(=O)NNC(=O)CSc2nnc(-c3ccc(O)cc3)n2C)cc1
IC50 [1]: 56.8 µM (active)

CC(=O)N1C(=O)/C(=C2\SC(=S)N(NS(=O)(=O)c3ccc(C)cc3)C2=O)c2ccccc21
IC50 [1]: 3.22 µM (active)

CCc1ccc(OCC(=O)Nc2ccncc2)c(Br)c1
EC50 [2]: 13.9 µM (active) | EC50 [3]: 17.4 µM (active) | EC50 [4]: > 350 µM (not active) | EC50 [5]: > 120 µM (not active) | EC50 [6]: > 350 µM (not active) | CC50 [7]: > 40 µM (active) | IC50 [8]: 38.1 µM (active)

O=c1c2cc(Cl)ccc2oc2nc3n(c(=O)c12)CCCS3
CC50 [7]: > 40 µM (active) | IC50 [8]: 2.92 µM (active)

Nc1cc(OC(=O)c2c(F)cccc2Cl)nn1S(=O)(=O)c1ccccc1
IC50 [9]: > 69.5 µM (inactive) | IC50 [10]: > 69.5 µM (inactive)

CNS(=O)(=O)c1cccc(C(=O)OCC(=O)N2c3ccccc3NC(=O)C2(C)C)c1
AC50 [11]: 3 µM (active)

COc1ccc(S(=O)(=O)NCC(c2ccco2)N2CCc3ccccc32)cc1 (stereo unspecified)
IC50 [9]: > 69.5 µM (inactive) | IC50 [10]: 38.4 µM (inactive)

CCOc1ccc(CNc2ccc(N3CCN(Cc4ccccc4)CC3)cc2)cc1
IC50 [12]: 49.6 µM (active) | EC50 [13]: > 260 µM (inactive)

CC1(O)N(Cc2ccccc2)C(=O)OC12CCCCC2 (stereo unspecified)
IC50 [9]: > 69.5 µM (inactive) | IC50 [10]: > 69.5 µM (inactive)

Cc1ccc2c(c1)-c1c(ssc1=S)C(C)(C)N2C(=O)CSC1=NCCS1
IC50 [12]: 24.9 µM (active) | AC50 [14]: 28.3 µM (active) | EC50 [15]: 9.8 µM (active)

COc1ccc(S(=O)(=O)NC2=NC(=O)/C(=C\c3ccco3)S2)cc1
IC50 [1]: 99.1 µM (active)

CN(CCc1ccccc1)C(=O)c1ccc(NC(=O)Cc2ccc(NC(=O)C3CCN(C(=O)CCc4ccccc4)CC3)cc2)cc1
CC50 [16]: > 40 µM (active)

Cc1ccc2c(c1)[C@H]1[C@H](CO2)[C@H](c2ccccc2)[C@]2(C)C(=O)N(Cc3ccc(Cl)cc3)CC(=O)N12
IC50 [9]: > 69.5 µM (inactive) | IC50 [10]: > 69.5 µM (inactive)

COc1ccccc1NC(=O)N[C@@H]1C=C[C@H](CC(=O)N[C@H](C)c2ccccc2)O[C@H]1CO
AC50 [17]: 8.31 µM (active) | AC50 [18]: 7.16 µM (active) | AC50 [19]: 6.98 µM (active)

O=C(C[C@@H]1CC[C@H]2[C@@H](COC[C@@H](O)CN2Cc2ccc(Oc3ccccc3)cc2)O1)N1CCN(c2ccccc2)CC1
AC50 [17]: 22.3 µM (active) | AC50 [18]: 20.4 µM (active) | AC50 [19]: 4.07 µM (active)

O=C(Nc1cccc(-c2csc(-c3ccccc3)n2)c1)c1cccs1
AC50 [20]: 3.38 µM (active) | IC50 [9]: > 69.5 µM (inactive) | IC50 [10]: > 69.5 µM (inactive)
